{"source": "patent US20260365696A1", "about": "“INHIBITORS OF PTP1B / NCK1 INTERACTION AND METHODS OF MAKING AND USING SAME” (Radella Pharmaceuticals LLC, priority 2023, published 2026)", "key": {"HFD-fed mice": {"tested_on": "HFD-fed mice", "test": "High-fat diet-induced obesity and type 2 diabetes model", "assay_type": "in vivo, mouse", "conditions": "30 mg/kg IP daily, 7 weeks", "source_text": "Animals: All animals were housed and tested following European (Directive on the Protection of Animals used for Scientific Purposes, 2010/63/EU) and UK Home Office regulations. Experiments were approved by the University Ethics Board and carried out in accordance with the Animal (Scientific Procedures) Act 1986 and following ARRIVE guidelines. C57BL/6 male mice (~3-4 months) were purchased from Charles River, UK. All mice received high fat and cholesterol diet (42% fat plus 0.2% cholesterol, #TD.88137, Envigo, US) to induce experimental type 2 diabetes and obesity phenotype. All mice had ad libitum access to food and water and were kept in a 12 h light/dark cycle.\nBriefly, after 8 weeks of high fat/high cholesterol diet feeding, mice were counterbalanced according to their body weight in to control (n=10) or MD20 30 mg/kg (n=10) groups. MD20 compound (30 mg/kg) was administered once daily via intraperitoneal (IP) injection for 7 weeks, whereas control mice received daily IP injection of vehicle (PBS). MD20 was kept at −20 °C and dissolved in sterile phosphate buffered saline (PBS) freshly every day before the injection. Three mice died during the study, and the final number of animals was: control (n=9) and MD20 30 mg/kg (n=8).\nBodyweights and body mass composition: Bodyweights were recorded during the study. Fat mass and lean mass composition were analysed using an EchoMRI scanner (EchoMedical Systems, Houston, TX, U.S.A.).\nMetabolic measurements: All animals were 5 h-fasted before metabolic testing. Tail blood glucose was measured using AlphaTRAK 2 glucose strips and glucometer (Abbot, UK). Glucose tolerance tests (GTT) and insulin tolerance tests (ITT) were performed by IP injection of 2 mg/g of glucose (GTT) or 0.6 mU/g insulin (ITT), and glucose levels were measured at 15, 30, 60 and 90 min post-injection.\nSerum and liver assays: Trunk-derived blood was collected from 5 h-fasted mice into serum separator microtubes and kept at −80 °C. Serum was used for insulin (#EZRMI-13K, Merck), leptin (#90030, Crystal Chem), free fatty acids (FFA; #mak044, Sigma-Aldrich), cholesterol (#MAK043, Sigma Aldrich), alanine, and aspartate aminotransferase (ALT and AST; ab105134 and ab105135, Abcam) analyses. Serum and liver triglycerides were determined using triglyceride reagents (#T2449, #F6428, #G7793, Sigma Aldrich).\nStatistical analyses: Data were reported as means±SEM and analysed using one- or two-way ANOVA with Bonferroni post hoc tests, as appropriate. GraphPad Prism (V8, GraphPad Software, Inc., San Diego, California, USA) was used for statistical analyses. P-values <0.05 were considered significant."}, "Caco-2 cells": {"tested_on": "Caco-2 cells", "test": "Caco-2 permeability assay", "assay_type": "in vitro ADME, human", "experimental": "(§1) Permeability (Caco-2 assay): Caco 2 cells were used as an in vitro model of the human intestinal epithelium and to permit assessment of the intestinal permeability of potential drugs. Test compound was added to either the apical or basolateral side of a confluent monolayer of Caco 2 cells and permeability was measured by monitoring the appearance of the test compound on the opposite side of the monolayer using LC-MS/MS. When performing a bi-directional assay, the efflux ratio (ER) was calculated from the ratio of B-A and A-B permeabilities.\n(§2) Briefly, Caco 2 cells obtained (ATCC) were used between passage numbers 40 and 60. Cells were seeded on to Transwell plates at 1×10^5 cells/cm^2. The cells were cultured in DMEM and media was changed every two or three days. On day 20, the permeability study was performed. […]\n(§3) Test and control compounds were quantified by LC-MS/MS cassette analysis using a 7-point calibration with appropriate dilution of the samples. […] The starting concentration (C0) was determined from the dosing solution and the experimental recovery was calculated from C0 and both apical and basolateral compartment concentrations.\n(§4) Data Analysis: The permeability coefficient (Papp) for each compound was calculated from the following equation: […]\n(§5) For bi directional experiments, an efflux ratio (ER) was calculated from mean A-B and B-A data using the following equation: […]"}, "[1]": {"test": "Caco-2 permeability assay", "assay_type": "in vitro ADME, human", "conditions": "human, Papp(B-A)/Papp(A-B), 120 min", "experimental": "as §1, §2, §3, §4, §5"}}}
{"substance": "Ac-PRPPKR-NH2 [MD20, Ac-PRPPKR-NH2]", "values": [{"measurement": "fasted basal glucose levels", "setting": "HFD-fed mice", "result": "No significant differences"}, {"measurement": "fasted serum cholesterol", "setting": "HFD-fed mice", "result": "No significant differences"}, {"measurement": "fasted serum free fatty acids", "setting": "HFD-fed mice", "result": "No significant differences"}, {"measurement": "fasted serum insulin", "setting": "HFD-fed mice", "result": "No significant differences"}, {"measurement": "fasted serum leptin", "setting": "HFD-fed mice", "result": "No significant differences"}, {"measurement": "hepatic toxicity", "setting": "HFD-fed mice", "result": "most likely did not induce hepatic toxicity"}, {"measurement": "liver triglycerides", "setting": "HFD-fed mice", "result": "No significant differences"}, {"measurement": "serum ALT", "setting": "HFD-fed mice", "result": "No significant differences"}, {"measurement": "serum AST", "setting": "HFD-fed mice", "result": "No significant differences"}, {"measurement": "serum triglycerides", "setting": "HFD-fed mice", "result": "No significant differences"}, {"measurement": "body weight gain", "setting": "HFD-fed mice; vs control", "result": "inhibited body weight gain"}, {"measurement": "fat mass gain", "setting": "HFD-fed mice; vs control", "result": "inhibited fat mass gain"}, {"measurement": "glucose tolerance test (GTT)", "setting": "HFD-fed mice; 2 mg/g glucose", "result": "No significant differences"}, {"measurement": "insulin sensitivity during ITT", "setting": "HFD-fed mice; 0.6 mU/g insulin", "result": "improved insulin sensitivity during ITT"}, {"measurement": "permeation of cells relative to antihypertensive drugs", "setting": "Caco-2 cells", "result": "able to permeate the cells at the same rate as some antihypertensive drugs (e.g., nicardipine)"}, {"measurement": "efflux ratio at 2 h", "setting": "[1]", "result": 0.252}]}
